{
  "source": "patent US4595535A",
  "about": "“Diazacycloalkyl-1,2,4-triazolo[2,3-c][1,3]benzodiazepines useful as neuroleptic and/or antihistaminic agents” (Ciba-Geigy Corporation, priority 1984, dated 1986)",
  "key": {"[1]": {"system": "avoidance behaviour in rats", "test": "conditioned avoidance behaviour (lever press to avoid foot shock), rats", "format": "in vivo", "conditions": "Rattus norvegicus, oral, read-out: oral dose that disrupts avoidance behaviour (decreases avoidance responses)", "experimental": "(§1) Each lever press postpones the shock for 30 seconds. Whenever the animal fails to press the lever once within said period, brief (0.5 sec.) shocks are delivered at 15 second intervals until the animal again presses the lever. Under control conditions the animals press the lever at a moderately steady rate and seldom receive more than five or six shocks during a 25-minute (rats) and up to 4-hour experimental session. Said compounds evaluated for neuroleptic activity, are administered to the animals 30, 90, 210 minutes prior to the experimental session and block the learned conditioned avoidance behaviour, manifested by a decrease in avoidance responding with a marked increase in shocks taken by the animal. Both the avoidance responses and failures (shocks received) are recorded separately for evaluation.\n(§2) Indicative of the antipsychotic utility of the compounds of this invention, e.g. the compound of example 1, namely 2-methyl-5-(4-methyl-1-piperazinyl)-11H-1,2,4-triazolo[2,3-c][1,3]benzodiazepine maleate, disrupts avoidance behaviour, e.g. decreases avoidance responses in rats and monkeys at an oral dose of about 1.0 mg/kg or lower."}, "[2]": {"system": "avoidance behaviour in monkeys", "test": "conditioned avoidance behaviour (lever press to avoid foot shock), monkeys", "format": "in vivo, squirrel monkeys", "conditions": "Primates, oral, read-out: oral dose that disrupts avoidance behaviour (decreases avoidance responses)", "experimental": "as §1, §2"}, "[3]": {"system": "extrapyramidal side effects, e.g. dyskinesias and dystonias", "test": "extrapyramidal side effects in the monkey", "format": "in vivo", "conditions": "at effective antipsychotic doses"}, "[4]": {"molecular_target": "histamine activation of adenylate cyclase", "test": "inhibition of histamine activation of adenylate cyclase in vesicles from guinea pig cerebral cortex", "format": "biochemical", "conditions": "50 micromolar histamine, 3H-cyclic AMP synthesis", "experimental": "Finally, said antihistaminic properties can be shown in vitro, e.g., according to Chasin et al., J. Neurochem. 22, 1031 (1974). Vesicles from a cell free preparation of guinea pig cerebral cortex are preincubated with ^3 H-adenine to form endogenous ^3 H-adenosine triphosphate. The vesicles are then incubated with 50 micromolar histamine to activate ^3 H-cyclic adenosine monophosphate synthesis in the absence or presence of the test compound at a concentration between 0.01 and 100 micromolar. When said compound is active, it inhibits the histamine activation of adenylate cyclase. The IC50 represents the concentration at which histamine activation is inhibited by 50%."}},
  "data": [
    {"smiles": "Cc1nc2n(n1)C(N1CCN(C)CC1)=Nc1ccccc1C2.O=C(O)/C=C\\C(=O)O", "note": "[Example 1, 2-methyl-5-(4-methyl-1-piperazinyl)-11H-1,2,4-triazolo[2,3-c][1,3]-benzodiazepine monomaleate]", "values": [
      {"measurement": "minimal effective dose", "setting": "[1]", "result": "≤ 1", "unit": "mg/kg"},
      {"measurement": "minimal effective dose", "setting": "[2]", "result": "≤ 1", "unit": "mg/kg"},
      {"measurement": "extrapyramidal side effects, e.g. dyskinesias and dystonias", "setting": "[3]", "result": "essentially free of extrapyramidal side effects"},
      {"measurement": "IC50", "setting": "[4]", "result": "~300", "unit": "nM"}
    ]}
  ]
}
